Data as given in the NIST ThermoML archive (doi:10.1021/acs.jced.5b00428).
Numbers after ± are expanded uncertainties.

How the values were obtained:
[1] = mn = molality of the nth substance listed, in mol/kg; conditions: 100 kPa, Liquid; for viscosity: Capillary tube (Ostwald / Ubbelohde) method; for mass density: Vibrating tube method
[2] = 101 kPa, Liquid, Capillary tube (Ostwald / Ubbelohde) method

Question: Which results are given for O [water] + CCCCn1cc[n+](C)c1.[Br-]?
Answer: viscosity ([1]; 288.15 K, m2 = 0): 1.138 ± 0.024 mPa·s; viscosity ([1]; 293.15 K, m2 = 0): 1.001 ± 0.021 mPa·s; viscosity ([1]; 298.15 K, m2 = 0): 0.89 ± 0.019 mPa·s; viscosity ([1]; 303.15 K, m2 = 0): 0.797 ± 0.017 mPa·s; viscosity ([1]; 308.15 K, m2 = 0): 0.719 ± 0.015 mPa·s; viscosity ([1]; 313.15 K, m2 = 0): 0.653 ± 0.014 mPa·s

Question: For O [water], which viscosity ([2]; 288.15 K) is on record?
Answer: Its viscosity is 1.138 ± 0.024 mPa·s.

Question: What about the viscosity ([2]; 293.15 K) of the same compound?
Answer: The viscosity was 1.001 ± 0.021 mPa·s.

Question: What about the viscosity ([2]; 298.15 K) of the same compound?
Answer: Its viscosity is 0.89 ± 0.019 mPa·s.

Question: What about the viscosity ([2]; 303.15 K) of the same compound?
Answer: The viscosity was 0.797 ± 0.017 mPa·s.

Question: And the viscosity ([2]; 308.15 K)?
Answer: The viscosity was 0.719 ± 0.015 mPa·s.

Question: And the viscosity ([2]; 313.15 K)?
Answer: The viscosity was 0.653 ± 0.014 mPa·s.

Question: Which viscosity ([1]; 288.15 K, m1 = 0.0046) does the source give for CCCCn1cc[n+](C)c1.[Br-] [1-butyl-3-methylimidazolium bromide] + O here?
Answer: The viscosity was 1.14 ± 0.024 mPa·s.

Question: What about the viscosity ([1]; 288.15 K, m1 = 0.0141) of the same compound?
Answer: The viscosity was 1.146 ± 0.024 mPa·s.

Question: What about the viscosity ([1]; 288.15 K, m1 = 0.0231) of the same compound?
Answer: Its viscosity is 1.148 ± 0.024 mPa·s.

Question: And the mass density ([1]; 288.15 K, m1 = 0.0046)?
Answer: The mass density was 999.318 ± 0.12 kg/m3.

Question: What about the mass density ([1]; 288.15 K, m1 = 0.0141) of the same compound?
Answer: Its mass density is 999.804 ± 0.12 kg/m3.

Question: What about the mass density ([1]; 288.15 K, m1 = 0.0231) of the same compound?
Answer: The mass density was 1000.22 ± 0.12 kg/m3.

Question: And the viscosity ([1]; 293.15 K, m1 = 0.0046)?
Answer: The viscosity was 1.003 ± 0.021 mPa·s.

Question: And the viscosity ([1]; 293.15 K, m1 = 0.0141)?
Answer: Its viscosity is 1.008 ± 0.021 mPa·s.

Question: What about the viscosity ([1]; 293.15 K, m1 = 0.0231) of the same compound?
Answer: Its viscosity is 1.012 ± 0.021 mPa·s.

Question: What about the mass density ([1]; 293.15 K, m1 = 0.0046) of the same compound?
Answer: The mass density was 998.492 ± 0.12 kg/m3.

Question: And the mass density ([1]; 293.15 K, m1 = 0.0141)?
Answer: Its mass density is 998.891 ± 0.12 kg/m3.

Question: What about the mass density ([1]; 293.15 K, m1 = 0.0231) of the same compound?
Answer: Its mass density is 999.304 ± 0.12 kg/m3.

Question: What about the viscosity ([1]; 298.15 K, m1 = 0.0046) of the same compound?
Answer: The viscosity was 0.891 ± 0.019 mPa·s.

Question: And the viscosity ([1]; 298.15 K, m1 = 0.0141)?
Answer: Its viscosity is 0.895 ± 0.019 mPa·s.

Question: What about the viscosity ([1]; 298.15 K, m1 = 0.0231) of the same compound?
Answer: Its viscosity is 0.897 ± 0.019 mPa·s.

Question: And the mass density ([1]; 298.15 K, m1 = 0.0046)?
Answer: Its mass density is 997.279 ± 0.12 kg/m3.

Question: What about the mass density ([1]; 298.15 K, m1 = 0.0141) of the same compound?
Answer: Its mass density is 997.685 ± 0.12 kg/m3.

Question: What about the mass density ([1]; 298.15 K, m1 = 0.0231) of the same compound?
Answer: The mass density was 998.078 ± 0.12 kg/m3.

Question: What about the viscosity ([1]; 303.15 K, m1 = 0.0046) of the same compound?
Answer: The viscosity was 0.8 ± 0.017 mPa·s.

Question: What about the viscosity ([1]; 303.15 K, m1 = 0.0141) of the same compound?
Answer: The viscosity was 0.8 ± 0.017 mPa·s.

Question: What about the viscosity ([1]; 303.15 K, m1 = 0.0231) of the same compound?
Answer: Its viscosity is 0.804 ± 0.017 mPa·s.

Question: What about the mass density ([1]; 303.15 K, m1 = 0.0046) of the same compound?
Answer: Its mass density is 995.876 ± 0.13 kg/m3.

Question: And the mass density ([1]; 303.15 K, m1 = 0.0141)?
Answer: The mass density was 996.322 ± 0.12 kg/m3.

Question: What about the mass density ([1]; 303.15 K, m1 = 0.0231) of the same compound?
Answer: The mass density was 996.69 ± 0.12 kg/m3.

Question: And the viscosity ([1]; 308.15 K, m1 = 0.0046)?
Answer: Its viscosity is 0.721 ± 0.015 mPa·s.

Question: And the viscosity ([1]; 308.15 K, m1 = 0.0141)?
Answer: The viscosity was 0.722 ± 0.015 mPa·s.

Question: What about the viscosity ([1]; 308.15 K, m1 = 0.0231) of the same compound?
Answer: Its viscosity is 0.725 ± 0.015 mPa·s.

Question: And the mass density ([1]; 308.15 K, m1 = 0.0046)?
Answer: The mass density was 994.252 ± 0.13 kg/m3.

Question: What about the mass density ([1]; 308.15 K, m1 = 0.0141) of the same compound?
Answer: The mass density was 994.678 ± 0.13 kg/m3.

Question: What about the mass density ([1]; 308.15 K, m1 = 0.0231) of the same compound?
Answer: Its mass density is 995.112 ± 0.12 kg/m3.

Question: And the viscosity ([1]; 313.15 K, m1 = 0.0046)?
Answer: Its viscosity is 0.654 ± 0.014 mPa·s.

Question: What about the viscosity ([1]; 313.15 K, m1 = 0.0141) of the same compound?
Answer: The viscosity was 0.656 ± 0.014 mPa·s.

Question: And the viscosity ([1]; 313.15 K, m1 = 0.0231)?
Answer: The viscosity was 0.657 ± 0.014 mPa·s.

Question: And the mass density ([1]; 313.15 K, m1 = 0.0046)?
Answer: The mass density was 992.415 ± 0.13 kg/m3.

Question: And the mass density ([1]; 313.15 K, m1 = 0.0141)?
Answer: The mass density was 992.871 ± 0.12 kg/m3.

Question: And the mass density ([1]; 313.15 K, m1 = 0.0231)?
Answer: Its mass density is 993.178 ± 0.12 kg/m3.
